We go through eight compounds from patent US4450292A, “Derivatives of phenyl aliphatic carboxylic acids, and use thereof in treating gastric and gastro-duodenal ailments” (Roussel Uclaf, priority 1981, dated 1984).

Each structure is given as a SMILES string. Structures can show the parent of a compound that is named as a salt.

Common to all, as to type: in vivo
In series [1] the test system is ulcers in rats at the level of the stomach. The series is described as follows: Anti-ulcer activity, SHAY technique (ligating of the pylorus). As to conditions: by mouth, about 16 hours after treatment. The source says: (1) Determination of the anti-ulcer activity of the compounds of Examples 1 to 4
The technique used is described by SHAY et al in Gastroenterology, 5, 43, (1945).
SHAY'S technique consists in inducing ulcers in rats at the level of the stomach by ligating of the pylorus.
The animals are anesthetized with ether. A longitudinal incision is made about 1 cm below the sternum, the glandular portion of the stomach and the duodenum are exposed and a ligature is applied a few millimeters below the pylorus. The muscular layer is left as is and the skin is sutured by two clips.
The animals immediately receive the dispersant or the substance to be studied by mouth in a volume of 0.5 cc per hundred grams and are kept without food or drink until sacrificed by carotic venesection, effected about 16 hours after the treatment.
Before removing the stomach, a ligature is placed around the cardia.
The gastric fluid is collected in order to measure the pH thereof.
The stomach is then opened along the greater curvature, rinsed in physiological serum and spread out on millimeter paper in order to be examined under a binocular lens.
The seriousness of the lesions is evaluated macroscopically, being rated from 0 to 4 for each stomach.
For each lot of rats the average intensity of the ulcerations is determined and the protection calculated by referring the average index of the group to the average index of the control group.
The pH values of the gastric liquid are also determined for the treated animals and the control animals.

A short description of series [2]: Acute toxicity, LD50 lethal dose after oral administration to mice. Conditions: mouse, in vivo, po, orally. The method, then:
(§1) (3) Determination of the acute toxicity
(§2) The LD50 lethal dose of the derivatives of Examples 1 to 9 after administration orally to mice was evaluated.

A further series deals with gastric fluid. The series is described as follows: Anti-ulcer activity, SHAY technique as modified by P. H. Guth (pylorus ligature plus aspirin), pH of the gastric fluid. As to conditions: rats, orally, aspirin 200 mg/kg. The method, then: (2) Determination of the anti-ulcer activity of the compounds of Examples 7 and 8
The technique used is described by SHAY et al in Gastroenterology, 5, 43 (1945) as modified by P. H. Guth in Gastroenterology, 76, 88 (1976).
After 48 hours fast, rats receive the dispersant or the substance to be studied orally in a volume of 1 cc/100 g.
One hour later the animals are anesthetized with ether. A longitudinal incision is made about 1 cm below the sternum, the glandular part of the stomach and the duodenum are exposed and a ligature is placed a few millimeters below the pylorus. The muscular layer is sutured and the skin is clipped.
An hour later, 200 mg/kg of aspirin dispersed in a 1% suspension of methyl cellulose in water to which 150 millimoles of hydrochloric acid have been added are administered orally in a volume of 0.5 cc/100 g.
Two hours after this last administration, the animals are sacrificed by means of carbon dioxide.
Before removing the stomach, a ligature is placed above the cardia.
The gastric fluid is collected in order to measure its pH for the treated animals and the control animals.

Another series relates to mice. Put plainly: Acute toxicity, LD50 lethal dose after oral administration to mice. Conditions: orally. The protocol: as §1, §2

On to `COc1cc(OC)c(C(=O)CC(O)C(=O)O)cc1OC` (centres unmarked) [Example 1, 4-(2,4,5-trimethoxyphenyl)-4-oxo-2-hydroxy butanoic acid], for which, in series [1] (100 mg/kg), the “Ulcerization % Protection As Compared with the Controls” value was determined as 43% and the “pH of the Gastric Fluid, Treated Animals” value is on record as 2.5. Further, the LD50 in series [2] stood at 1000 mg/kg.
`COc1cc(OC)c(C(=O)/C=C/C(=O)O)cc1OC` [Example 2, (E) 4-(2,4,5-trimethoxyphenyl)-4-oxo-2-butenoic acid]: in series [1] (4 mg/kg), the “Ulcerization % Protection As Compared with the Controls” value worked out at 72% and the “pH of the Gastric Fluid, Treated Animals” value is reported as 3.6. In series [1] (20 mg/kg), the “Ulcerization % Protection As Compared with the Controls” value was 100% and the “pH of the Gastric Fluid, Treated Animals” value is given as 4.6. In series [2], this compound displayed an LD50 of 600 mg/kg.
With `COc1cc(C(=O)CC(O)C(=O)O)cc(OC)c1OC` (centres unmarked) [Example 3, 4-(3,4,5-trimethoxyphenyl)-4-oxo-2-hydroxy butanoic acid], in series [1] (100 mg/kg), the “Ulcerization % Protection As Compared with the Controls” value is on record as 45% and the “pH of the Gastric Fluid, Treated Animals” value worked out at 3.7. The LD50 in series [2] is 1000 mg/kg.
`COc1cc(C(=O)/C=C/C(=O)O)cc(OC)c1OC` [Example 4, (E)-4-(3,4,5-trimethoxyphenyl)-4-oxo-2-butenoic acid]: the “Ulcerization % Protection As Compared with the Controls” value is 38% in series [1] (0.8 mg/kg), 65% in series [1] (4 mg/kg) and 98% in series [1] (20 mg/kg). The “pH of the Gastric Fluid, Treated Animals” value was determined as 1.8 in series [1] (0.8 mg/kg), 3.0 in series [1] (4 mg/kg) and 2.4 in series [1] (20 mg/kg). This compound also had a median lethal dose (LD50) in series [2] of 600 mg/kg.
In series [2], `COc1cc(OC)c(C(=O)/C=C/C(=O)O)c(OC)c1` [Example 5, (E)-4-(2,4,6-trimethoxyphenyl)-4-oxo-2-butenoic acid] returned an LD50 of 200 mg/kg.
On to `COc1cc(C(=O)/C=C/C(=O)O)cc(OC)c1OC` [Example 7, Morpholine salt of (E) 4-(3,4,5-trimethoxyphenyl)-4-oxo-2-butenoic acid], for which the “pH of the Gastric Fluid, Treated Animals” value was 2 in the series on gastric fluid (4 mg/kg), 2.4 in the series with gastric fluid (20 mg/kg) and 4.1 with gastric fluid (100 mg/kg). This compound also displayed an LD50 with mice of over 400 mg/kg.
Take `COc1cc(C(=O)/C=C/C(=O)O)cc(OC)c1OC` [Example 8, Sodium salt of (E)-4-(3,4,5-trimethoxyphenyl)-4-oxo-2-butenoic acid]: the “pH of the Gastric Fluid, Treated Animals” value is given as 2.3 in the series on gastric fluid (0.8 mg/kg), 2.2 with gastric fluid (4 mg/kg), 3 in the series with gastric fluid (20 mg/kg) and 4.6 with gastric fluid (100 mg/kg). This compound registered an LD50 in the series on mice of over 400 mg/kg.
Compound `COc1cc(C(=O)/C=C/C(=O)O)cc(OC)c1OC` [Example 9, Piperidine salt of (E)-4-(3,4,5-trimethoxyphenyl)-4-oxo-2-butenoic acid] came in with an LD50 in the series on mice of over 400 mg/kg.
